These are literature values, as cited in patent publication US9511035B2, “Java ginger extract and manufacturing method” (Hosoda SHC Inc., priority 2013, dated 2016).

Each structure is given as a SMILES string.

Data set [1] relates to rat adrenal medullary pheochromocytoma (PC12 cell). The settings on record: stated in words; for NGF-like action: no data in this patent, earlier finding of the inventors (JP 2010-90053 A).
The test system of another data set is chemokine expression. The settings on record: disclosed in JP 2003-306438 A.
For another data set, the system named is tyrosinase. The conditions noted are these: disclosed in JP 2003-313116 A.
In data set [2] the target is platelet-activating factor (Homo sapiens, UniProt P25105). The conditions noted are these: disclosed in JP 2003-313116 A.
Chain of platelet-activating factor (P25105 whole entry): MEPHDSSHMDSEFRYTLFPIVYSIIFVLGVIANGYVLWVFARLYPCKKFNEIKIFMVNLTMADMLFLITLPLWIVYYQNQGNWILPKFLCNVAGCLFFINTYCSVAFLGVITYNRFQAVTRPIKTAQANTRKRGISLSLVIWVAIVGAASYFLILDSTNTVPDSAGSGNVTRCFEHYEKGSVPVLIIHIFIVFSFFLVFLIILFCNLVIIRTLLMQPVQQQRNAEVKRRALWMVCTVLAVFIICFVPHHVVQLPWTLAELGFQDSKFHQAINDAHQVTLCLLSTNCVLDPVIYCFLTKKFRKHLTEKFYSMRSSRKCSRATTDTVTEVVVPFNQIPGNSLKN

Consider `C=C/C=C/c1ccc(OC)c(OC)c1` [monomer, phenyl butenoid monomer, reference compound], for which, in data set [1], the NGF-like action entry is on record as “no NGF-like action”.

Take `COc1ccc(/C=C/C2CCC=CC2c2ccc(OC)c(OC)c2)cc1OC` (centres unmarked) [phenyl butenoid dimer]: the chemokine expression-inhibiting action entry with chemokine expression was “chemokine expression-inhibiting action”. The tyrosinase activity-inhibiting action result with tyrosinase was “tyrosinase activity-inhibiting action”. Also, the process extension activity entry in data set [1] (PC12 cell) is “shows a process extension activity”. Besides, the “differentiation of PC12 cell” value in data set [1] (as is the case with the NGF) is reported as “induces differentiation”. For the same molecule, the “NGF-like action (neuronal process extension action) relative to NGF” value in data set [1] (comparison with NGF) is recorded as “more effective than NGF”. The NGF-like action result in data set [1] is “showed an NGF-like action”. Further, the platelet-activating factor antagonism entry in data set [2] is recorded as “platelet-activating factor antagonism”.
